Data published in patent US20140004243A1, “SALTY TASTE ENHANCER” (AJINOMOTO CO., INC., priority 2011, published 2014).

Molecular target: T1, Human ENaC δ, β and γ subunit (Homo sapiens, UniProt P51168+P51170+P51172)
T1 construct: expressed in transfected cells; host or cells: Xenopus laevis (African clawed frog) oocytes injected with cRNA
T1 sequence (P51172 1-802): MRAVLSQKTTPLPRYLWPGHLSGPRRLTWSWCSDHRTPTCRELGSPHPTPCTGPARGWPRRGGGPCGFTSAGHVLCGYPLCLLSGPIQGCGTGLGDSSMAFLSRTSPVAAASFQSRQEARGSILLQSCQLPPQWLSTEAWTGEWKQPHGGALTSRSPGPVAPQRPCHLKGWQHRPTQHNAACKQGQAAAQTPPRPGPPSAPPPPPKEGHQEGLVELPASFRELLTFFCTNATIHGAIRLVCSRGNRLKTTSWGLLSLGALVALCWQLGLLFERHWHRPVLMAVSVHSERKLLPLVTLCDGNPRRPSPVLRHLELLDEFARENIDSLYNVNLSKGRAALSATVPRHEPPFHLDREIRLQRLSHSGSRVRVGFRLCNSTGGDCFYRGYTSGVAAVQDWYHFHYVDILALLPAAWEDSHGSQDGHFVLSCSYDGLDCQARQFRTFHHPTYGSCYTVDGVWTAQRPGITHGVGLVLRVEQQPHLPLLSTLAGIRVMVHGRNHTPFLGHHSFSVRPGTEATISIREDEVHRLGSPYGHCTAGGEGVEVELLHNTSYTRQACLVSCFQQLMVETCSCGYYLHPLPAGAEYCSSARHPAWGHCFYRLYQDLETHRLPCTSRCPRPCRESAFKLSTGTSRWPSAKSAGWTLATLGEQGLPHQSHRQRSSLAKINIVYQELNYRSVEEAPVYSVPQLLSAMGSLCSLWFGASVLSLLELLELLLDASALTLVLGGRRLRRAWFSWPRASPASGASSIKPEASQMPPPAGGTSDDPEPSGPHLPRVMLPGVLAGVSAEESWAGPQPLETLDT
T1 sequence (P51168 1-640): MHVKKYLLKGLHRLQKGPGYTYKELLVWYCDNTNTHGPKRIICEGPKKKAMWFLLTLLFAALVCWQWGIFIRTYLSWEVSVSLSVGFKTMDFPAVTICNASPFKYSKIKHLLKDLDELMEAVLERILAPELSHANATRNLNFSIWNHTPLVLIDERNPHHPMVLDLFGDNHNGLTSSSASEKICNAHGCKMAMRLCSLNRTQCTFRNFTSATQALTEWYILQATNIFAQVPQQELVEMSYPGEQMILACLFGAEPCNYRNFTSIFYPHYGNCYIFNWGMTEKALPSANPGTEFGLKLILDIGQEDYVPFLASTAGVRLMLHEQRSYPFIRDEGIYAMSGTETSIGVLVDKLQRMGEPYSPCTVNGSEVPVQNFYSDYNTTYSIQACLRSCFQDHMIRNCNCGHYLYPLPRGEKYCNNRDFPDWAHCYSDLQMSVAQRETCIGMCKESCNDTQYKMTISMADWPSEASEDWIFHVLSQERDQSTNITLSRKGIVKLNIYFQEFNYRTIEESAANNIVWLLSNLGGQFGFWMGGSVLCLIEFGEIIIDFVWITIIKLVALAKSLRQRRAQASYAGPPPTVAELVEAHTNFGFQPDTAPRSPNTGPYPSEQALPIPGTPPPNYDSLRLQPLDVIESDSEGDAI
T1 sequence (P51170 1-649): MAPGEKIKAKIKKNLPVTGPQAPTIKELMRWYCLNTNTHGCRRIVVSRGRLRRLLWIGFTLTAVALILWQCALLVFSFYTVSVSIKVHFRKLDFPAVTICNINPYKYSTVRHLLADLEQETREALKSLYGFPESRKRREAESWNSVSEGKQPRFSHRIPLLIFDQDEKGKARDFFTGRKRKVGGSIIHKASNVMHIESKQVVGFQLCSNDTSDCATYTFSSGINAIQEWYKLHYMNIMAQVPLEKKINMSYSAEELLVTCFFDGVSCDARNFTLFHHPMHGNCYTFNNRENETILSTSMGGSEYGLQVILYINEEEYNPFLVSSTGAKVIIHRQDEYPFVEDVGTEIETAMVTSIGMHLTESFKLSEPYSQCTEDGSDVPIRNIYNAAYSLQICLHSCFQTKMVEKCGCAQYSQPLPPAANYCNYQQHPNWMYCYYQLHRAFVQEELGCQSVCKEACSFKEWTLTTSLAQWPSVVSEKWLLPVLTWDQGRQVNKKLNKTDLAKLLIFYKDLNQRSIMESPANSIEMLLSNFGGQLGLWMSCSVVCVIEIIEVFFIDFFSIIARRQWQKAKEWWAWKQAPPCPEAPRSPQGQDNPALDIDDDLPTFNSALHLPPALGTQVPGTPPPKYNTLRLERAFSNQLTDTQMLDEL
Test: Measurement of ENaC activation potency (MED) in ENaC-expressing oocyte, Two Electrode Voltage Clamp
Format: cell-based
Details: minimum effective dose at which current started to increase; ENaC-expressing African clawed frog oocyte; smaller MED = higher ENaC activation potency
Description: ENaC activation current value, namely, the inward current in ENaC-expressing oocyte was measured as follows.
According to the method described in Motonao Nakamura, Takao Shimizu: Experiment of African clawed frog oocyte, Experimental Medicine Vol. 11, No. 3, 224-232 (1993), oocyte was collected from African clawed frog, […], and the current value was measured by a Two Electrode Voltage Clamp technique. In the present invention, ND96 (96 mM NaCl, 2 mM KCl, 1 mM MgCl2, 5 mM Hepes, 1.8 mM CaCl2, pH 7.6) was used instead of MBS buffer in the above-mentioned document. Injector NANOLITER 2000 manufactured by World Precision Instruments was used for microinjection, OpusXpress 6000A manufactured by Molecular Devices was used for current value measurement by a Two Electrode Voltage Clamp technique, and Clampfit 10.2 software manufactured by Molecular Devices was used for data analysis.
Human ENaC δ, β and γ subunit genes shown by SEQ ID NOs: 1, 2 and 3, respectively, in the Sequence Listing were each cloned into a plasmid vector, and used as a template DNA for cRNA synthesis. cRNA was synthesized using MEGAscript kit manufactured by Ambion and according to the method of the manual of the manufacturer.
A mixture of the same amount of ENaC […] cRNA (0.4 to 0.8 μg/μL), and β and γ subunits cRNA (0.4 μg/μL) was injected into the oocyte of African clawed frog at […] per oocyte, and the oocyte was cultured for 16 hr-72 hr. Thereafter, the oocyte was set on a measuring apparatus OpusXpress 6000A, the electrodes were inserted into the oocyte, the voltage was clamped at a level lower by −30 mV than the resting membrane potential by a Two Electrode Voltage Clamp technique, and the current value was measured.
To measure the ENaC activation potency, oocyte was stimulated with each test compound, and the minimum effective dose (hereinafter to be abbreviated as MED) of the compound at the time point when the electric current started to increase was measured. In this case, whichever smaller value of the minimum effective dose of the stimulation compound that increased the current value by not less than 10%, and the minimum effective concentration of the compound that increased, by not less than 25%, the electric current increase value due to the stimulation by 5 μM capsazepine (CAS NO.: 138977-28-3), as compared to the current value before addition of the compound and without stimulation, was taken as MED. A smaller MED means higher ENaC activation potency.
Each test compound was directly dissolved in ND96, or first dissolved in dimethyl sulfoxide (DMSO) to 100 mM, and then prepared by diluting the solution with ND96 to a concentration used for the evaluation. The concentration of the test compound in ND96 was prepared to various concentrations within the range of 0.1 nM to 300 μm.
ND96 as a perfusion fluid was flown at a rate of 0.5 mL/min through the measuring apparatus OpusXpress 6000A on which ENaC-expressing oocyte was set, the perfusion fluid was temporarily stopped every 3 minutes to add a test compound solution (0.25 mL) dissolved in ND96 at a rate of 0.5 mL/min. In this way, the test compound was contacted with ENaC-expressing oocyte, and whether ENaC is activated by the compound was examined by measuring the current value. After addition of the test compound, feeding of the perfusion fluid was resumed to wash away the compound to be ready for the next addition of the compound.
The compound was added successively from a low concentration to a high concentration to stimulate ENaC-expressing oocyte. The concentrations actually added was, for example, 1 nM, 3 nM, 10 nM, 30 nM, 100 nM, 300 nM; 1 μM, 3 μM, 10 μm, 30 μm, 100 μm, 300 μm; 1.2 μM, 6 μM, 30 μm, 150 μm of one test compound. The compound was added from low concentrations to high concentrations at 3 min intervals. […]

MED | SMILES
5 µM | Oc1ccc(NC(=S)NCCc2ccccc2)cc1O [Example 47, 1-(3,4-dihydroxyphenyl)-3-(2-phenylethyl)thiourea]
1 µM | CC(C)CN(Cc1ccc(O)c(O)c1)C(=S)NCCc1ccccc1 [Example 48]
30 µM | O=C1C(c2ccccc2)NC(=S)N1CCc1ccccc1 (stereo not drawn) [Example 49]
3 µM | OC[C@H](NC(=S)NCCc1ccccc1)c1ccccc1 [Example 50]
1 µM | OC[C@@H](Cc1ccccc1)NC(=S)NCc1ccccc1 [Example 52]
30 µM | NC(=O)CNC(=S)NCc1ccccc1 [Example 53]
1 µM | OC(CNC(=S)NCc1ccccc1)c1ccccc1 (stereo not drawn) [Example 54]
30 µM | S=C(NCCc1ccccc1)N1Cc2ccccc2C1 [Example 55]
10 µM | COC(=O)c1ccc(CNC(=S)NCCc2ccccc2)cc1 [Example 56]
1 µM | OC[C@H](Cc1ccccc1)NC(=S)NCc1ccccc1 [Example 57]
10 µM | S=C(NCc1ccccc1)NCC(c1ccccc1)c1ccccc1 [Example 59]
10 µM | COc1cccc(CCNC(=S)NCc2ccccc2)c1 [Example 60]
30 µM | Oc1ccccc1CNC(=S)NCCc1ccccc1 [Example 61]
1.1 µM | Oc1ccccc1CCNC(=S)NCc1ccccc1 [Example 62]
3.3 µM | Oc1cccc(CCNC(=S)NCc2ccccc2)c1 [Example 63]
30 µM | O=[N+]([O-])c1ccc(CNC(=S)NCCc2ccccc2)cc1 [Example 64]
3.3 µM | N#Cc1ccc(CNC(=S)NCCc2ccccc2)cc1 [Example 65]
3 to 10 µM | CN(CCc1ccccc1)C(=S)NCc1ccccc1 [Example 66]
10 µM | COc1cc(CNC(=S)NCCc2ccccc2)cc(OC)c1 [Example 67]
3 µM | Oc1cc(O)cc(CNC(=S)NCCc2ccccc2)c1 [Example 68]

MED | SMILES
1 µM | ON(Cc1ccccc1)C(=S)NCCc1ccccc1 [Example 69]
10 µM | S=C(NCCC1CCCCC1)NCc1ccccc1 [Example 70]
1 µM | O[C@@H](CNC(=S)NCc1ccccc1)c1ccccc1 [Example 71]
1 µM | O[C@H](CNC(=S)NCc1ccccc1)c1ccccc1 [Example 72]
3 to 10 µM | S=C(NCCc1ccccc1Cl)NCc1ccccc1 [Example 73]
3 to 10 µM | S=C(NCCc1ccccc1Br)NCc1ccccc1 [Example 74]
1 µM | COC[C@@H](NC(=S)NCCc1ccccc1)c1ccccc1 [Example 75]
10 µM | S=C(NCCc1ccccc1)N[C@H](COCc1ccccc1)c1ccccc1 [Example 76]
1 µM | COC(CNC(=S)NCc1ccccc1)c1ccccc1 (stereo not drawn) [Example 77]
10 µM | CC(C)(C)OC(=O)Nc1cccc(CNC(=S)NCCc2ccccc2)c1 [Example 78, tert-butyl 3-{[3-(2-phenylethyl)thioureido]methyl}phenylcarbamate]
1 µM | Nc1cccc(CNC(=S)NCCc2ccccc2)c1 [Example 79, 1-(3-aminobenzyl)-3-(2-phenylethyl)thiourea]
10 µM | S=C(CCCc1ccccc1)NCc1ccccc1 [Example 80, N-benzyl-4-phenylbutanethioamide]
10 µM | S=C(CCc1ccccc1)NCCc1ccccc1 [Example 81]
3 µM | CC(C)(C)OC(=O)NCC(=O)Nc1cccc(CNC(=S)NCCc2ccccc2)c1 [Example 82, tert-butyl (3-{[3-(2-phenylethyl)thioureido]methyl}phenylcarbamoyl)methylcarbamate]
10 µM | COC[C@@H](Cc1ccccc1)NC(=S)NCc1ccccc1 [Example 84]
0.6 µM | C[C@@H](NC(=S)NCCc1ccccc1O)c1ccccc1 [Example 85]
1 µM | CS(=O)(=O)Nc1cccc(CNC(=S)NCCc2ccccc2)c1 [Example 86, 1-[3-(mesylamino)benzyl]-3-(2-phenylethyl)thiourea]
10 µM | Cc1ccc(S(=O)(=O)Nc2cccc(CNC(=S)NCCc3ccccc3)c2)cc1 [Example 87]
0.6 to 1 µM | Oc1ccccc1CCNC(=S)N[C@@H]1CCc2ccccc21 [Example 88]
